pIC50: −log10 of the molar value. Read-outs that look alike come from different tables or passages of the source.
Tests used:
MOLM-13 cells [1] = experiment: MOLM-13 48 Hour Cell Proliferation Assay; format: cell-based; settings: Homo sapiens
Summary of the method: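 IC50 derived by 4-parameter logistic regression of CellTiter-Glo luminescence, scaled between DMSO (0% death) and staurosporine (100% death) controls. Compounds applied for 48 h at 37 °C as 10-point, 4-fold dilutions, 0.25% DMSO final, to MOLM-13 cells pre-seeded overnight in RPMI 1640 plus 10% FBS.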

MOLM-13 cells [2] = experiment: MOLM-13 96 Hour Cell Proliferation Assay; format: cell-based; settings: Homo sapiens
Summary of the method: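 MOLM-13 cells in RPMI 1640 with 10% FBS were plated overnight at 37 °C, then exposed to compound dilutions at 0.25% DMSO final for 96 h. Viability was read by CellTiter-Glo luminescence, normalised to staurosporine (100% death) and DMSO (0% death) controls, and IC50 was fitted by 4-parameter logistic regression.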

METTL1/WDR4 = METTL1/WDR4 (Homo sapiens, UniProt Q9UBP6); experiment: METTL1 Assay (METTL1 biochemical assay)
Sequence of METTL1/WDR4 (Q9UBP6 whole entry, species assumed): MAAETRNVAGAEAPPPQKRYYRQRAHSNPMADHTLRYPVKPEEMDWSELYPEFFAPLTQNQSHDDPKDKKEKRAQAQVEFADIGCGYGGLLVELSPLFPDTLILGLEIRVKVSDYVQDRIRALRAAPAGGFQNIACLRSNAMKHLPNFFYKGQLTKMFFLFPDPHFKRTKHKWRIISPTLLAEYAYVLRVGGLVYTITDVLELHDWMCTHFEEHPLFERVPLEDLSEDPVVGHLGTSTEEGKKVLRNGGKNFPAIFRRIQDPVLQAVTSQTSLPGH
Sequence of METTL1/WDR4 (P57081 whole entry partner, species assumed): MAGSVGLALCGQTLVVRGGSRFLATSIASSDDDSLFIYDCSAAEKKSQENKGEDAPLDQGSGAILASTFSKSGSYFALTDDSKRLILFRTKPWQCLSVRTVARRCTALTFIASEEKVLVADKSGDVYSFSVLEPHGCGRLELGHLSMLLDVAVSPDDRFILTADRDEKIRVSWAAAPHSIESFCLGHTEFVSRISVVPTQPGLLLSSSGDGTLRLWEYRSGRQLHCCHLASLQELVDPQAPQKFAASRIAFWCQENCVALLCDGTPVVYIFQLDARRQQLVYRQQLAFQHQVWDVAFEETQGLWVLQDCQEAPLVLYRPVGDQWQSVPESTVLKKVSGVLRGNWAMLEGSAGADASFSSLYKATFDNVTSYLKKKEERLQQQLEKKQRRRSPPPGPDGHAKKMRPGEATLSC
Summary of the method: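 Radiometric methyltransfer by METTL1/WDR4 (6.25 nM f.c., 5 min preincubation) at ambient temperature in HEPES pH 7.5, KCl, MgCl2, DTT; started with 25 nM 3′-biotinylated RNA and 60 nM 3H-SAM, run 20 min, quenched with 15 μM cold SAM. Product captured on streptavidin flashplates (2 h, 25° C), counted by scintillation.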

[3] = read-out: METTL1 IC50, METTL1 biochemical assay

Compound | pIC50 (MOLM-13 cells [1]) | pIC50 (MOLM-13 cells [2]) | pIC50 (METTL1/WDR4; [3]) | pIC50 (MOLM-13 cells [2]; MOLM-13, 96 h) | pIC50 (METTL1/WDR4) | pIC50 (METTL1/WDR4; METTL1 biochemical assay, read-out: METTL1 IC50)
CCNc1ccc2ccc(OC[C@H]3O[C@@H](n4cc(-c5cn(C)cn5)c5c(N)ncnc54)[C@@H](F)[C@@H]3O)cc2n1 [I-10] | 5.00 to 6.00 | > 6.00 |  |  |  | 
CNc1ccc2ccc(OC[C@H]3O[C@@H](n4cc(-c5ccn(C)n5)c5c(N)ncnc54)[C@@H](F)[C@@H]3O)cc2n1 [I-12] | > 6.00 | > 6.00 |  |  |  | 
CNc1ccc2ccc(OC[C@H]3O[C@@H](n4cc(CC5CCCC5)c5c(N)ncnc54)[C@H](O)[C@@H]3O)cc2n1 [I-23] | < 5.00 |  | < 6.00 |  |  | 
CNc1ccc2ccc(OC[C@H]3O[C@@H](n4cc(C5CC5)c5c(N)ncnc54)[C@@H](F)[C@@H]3O)cc2n1 [I-29] | > 6.00 |  | < 6.00 | > 6.00 |  | 
CNc1ccc2ccc(OC[C@H]3O[C@@H](n4cc(C5CCCC5)c5c(N)ncnc54)[C@H](O)[C@@H]3O)cc2n1 [I-33, (2R,3R,4S,5R)-2-(4-amino-5-cyclopentyl-7H-pyrrolo[2,3-d]pyrimidin-7-yl)-5-(((2-(methylamino)quinolin-7-yl)oxy)methyl)tetrahydrofuran-3,4-diol] | 5.00 to 6.00 |  |  | > 6.00 | < 6.00 | 
CNc1ccc2ccc(OC[C@H]3O[C@@H](n4cc(CC5CC5)c5c(N)ncnc54)[C@@H](F)[C@@H]3O)cc2n1 [I-36] | 5.00 to 6.00 |  | < 6.00 | > 6.00 |  | 
CNc1ccc2ccc(CC[C@H]3O[C@@H](n4cc(C5CCCC5)c5c(N)ncnc54)[C@H](O)[C@@H]3O)cc2n1 [I-39] | 5.00 to 6.00 |  | < 6.00 | > 6.00 |  | 
CNc1ccc2ccc(OC[C@H]3O[C@@H](n4cc(Cl)c5c(N)ncnc54)[C@H](O)[C@@H]3O)cc2n1 [I-70] | 5.00 to 6.00 |  | < 6.00 | > 6.00 |  | 
CNc1ccc2ccc(OC[C@H]3O[C@@H](n4cc(Br)c5c(N)ncnc54)[C@H](O)[C@@H]3O)cc2n1 [I-73] | 5.00 to 6.00 |  | < 6.00 | > 6.00 |  | 
Cn1ccc(-c2cn([C@@H]3O[C@H](COc4ccc5ccc(N6CCC6)nc5c4)[C@@H](O)[C@@H]3F)c3ncnc(N)c23)n1 [I-149] | > 6.00 |  |  | > 6.00 |  | < 6.00

Reference: US20230027361A1, “METTL3 MODULATORS” (priority 2019, published 2023)
